The conditions of assay [1]: target or test not stated; chemically modified non-immunosuppressive rapamycin analogue; cited from earlier work.
Assay [2] relates to donor PBMCs. The assay is described as follows: IFNγ production in IL-12 pre-treated transduced and untransduced donor PBMCs. The following applies: untransduced controls and IL-18R-DARIC-GFP transduced cells; pre-treated 50 ng/mL human recombinant IL-12 for 24 hours, then medium with 100 ng/mL human recombinant IL-18; FIG. 2. Format: cell-based. An excerpt: IL-18 receptor (IL-18R) DARIC binding and signaling components were designed, constructed, and verified. An IL-18R DARIC lentiviral vector was constructed comprising an MNDU3 promoter operably linked to a polynucleotide encoding: a DARIC signaling component (CD8α-signal peptide, an FRB variant (T82L), and an IL-18R1 transmembrane and signaling domain); a P2A sequence; and a DARIC binding component (an Igκ-signal peptide, an FKBP12 domain, and a IL-18RAP transmembrane and signaling domain). An IL-18R DARIC-GFP lentiviral vector was constructed by appending another polynucleotide encoding a P2A sequence and GFP to the to the polynucleotide encoding the IL-18R1 signaling domain in aforementioned vector. See, e.g., SEQ ID NOs: 1-4.
Donor PBMCs were transduced with LVV encoding IL-18R-DARIC-GFP. Transduced PBMCs and untransduced control PBMCs were pre-treated with 50 ng/mL human recombinant IL-12 for 24 hours. The treated cells were washed and cultured in medium only, medium with 100 ng/mL human recombinant IL-18 or medium with 1 nM rapamycin. […] FIG. 2.

For `CO[C@H]1[C@@H](O)[C@H](C)C[C@H](C)/C=C/C=C/C=C(\C)[C@@H](c2c[nH]c3c(C)cccc23)C[C@@H]2CC[C@@H](C)[C@@](O)(O2)C(=O)C(=O)N2CCCC[C@H]2C(=O)O[C@H]([C@H](C)C[C@@H]2CC[C@@H](O)[C@H](OC)C2)C[C@H](O)[C@H](C)/C=C(\C)[C@H]1O` [AP21967, C-16-(S)-7-methylindolerapamycin], the half-inhibitory concentration (IC50) in assay [1] is 10 nM.
With “IL-18: human recombinant IL-18 cytokine used as positive control”, in assay [2], the “IFNγ production when cultured in IL-18” value is “increased IFNγ production in both untransduced controls and cells transduced with IL-18R-DARIC-GFP”.

What is called IC50 is the concentration at which inhibition is half-maximal.

The values above are taken from US12686711B2, “DARIC interleukin receptors” (Regeneron Pharmaceuticals, Inc., priority 2017, dated 2026).
